How the values were obtained:
human CB1 receptors = human CB1 receptors (Homo sapiens (Human), UniProt P21554); experiment: functional cAMP assay, CHO cells expressing human CB1 receptors; assay type: cell-based
Method: (§1) CHO cells expressing human CB1 or CB2 receptors are seeded 17-24 hours prior to the experiment 50.000 cells per well in a black 96 well plate with flat clear bottom (Corning Costar #3904) in DMEM (Invitrogen No. 31331), 1×HT supplement, with 10% fetal calf serum and incubated at 5% CO2 and 37° C. in a humidified incubator. The growth medium was exchanged with Krebs Ringer Bicarbonate buffer with 1 mM IBMX and incubated at 30° C. for 30 min. Compounds were added to a final assay volume of 100 μl and incubated for 30 min at 30° C. Using the cAMP-Nano-TRF detection kit the assay (Roche Diagnostics) was stopped by the addition of 50 μl lysis reagent (Tris, NaCl, 1.5% Triton X100, 2.5% NP40, 10% NaN3) and 50 μl detection solutions (20 μM mAb Alexa700-cAMP 1:1, and 48 μM Ruthenium-2-AHA-cAMP) and shaken for 2 h at room temperature. The time-resolved energy transfer is measured by a TRF reader (Evotec Technologies GmbH), equipped with a ND:YAG laser as excitation source. The plate is measured twice with the excitation at 355 nm and at the emission with a delay of 100 ns and a gate of 100 ns, total exposure time 10 s at 730 (bandwidth 30 nm) or 645 nm (bandwidth 75 nm), respectively. The FRET signal is calculated as follows: FRET=T730-Alexa730-P(T645-B645) with P=Ru730-B730/Ru645-B645, where T730 is the test well measured at 730 nM, T645 is the test well measured at 645 nm, B730 and B645 are the buffer controls at 730 nm and 645 nm, respectively. cAMP content is determined from the function of a standard curve spanning from 10 μM to 0.13 nM cAMP.
(§2) EC50 values were determined using Activity Base analysis (ID Business Solution, Limited). The EC50 values for a wide range of cannabinoid agonists generated from this assay were in agreement with the values published in the scientific literature.

human CB2 receptors = human CB2 receptors (Homo sapiens (Human), UniProt P34972); experiment: functional cAMP assay, CHO cells expressing human CB2 receptors; assay type: cell-based
Method: as §1, §2

Chain of human CB2 receptors (P34972 whole entry): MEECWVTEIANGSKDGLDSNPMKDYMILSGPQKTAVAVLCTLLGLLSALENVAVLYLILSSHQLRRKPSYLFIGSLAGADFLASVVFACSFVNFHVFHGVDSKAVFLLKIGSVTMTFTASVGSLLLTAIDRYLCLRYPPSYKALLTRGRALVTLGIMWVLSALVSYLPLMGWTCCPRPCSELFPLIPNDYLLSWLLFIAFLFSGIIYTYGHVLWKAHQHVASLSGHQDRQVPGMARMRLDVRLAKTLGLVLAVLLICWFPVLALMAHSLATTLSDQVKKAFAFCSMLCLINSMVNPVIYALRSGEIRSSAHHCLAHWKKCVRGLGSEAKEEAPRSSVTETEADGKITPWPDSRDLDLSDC
Chain of human CB1 receptors (P21554 whole entry): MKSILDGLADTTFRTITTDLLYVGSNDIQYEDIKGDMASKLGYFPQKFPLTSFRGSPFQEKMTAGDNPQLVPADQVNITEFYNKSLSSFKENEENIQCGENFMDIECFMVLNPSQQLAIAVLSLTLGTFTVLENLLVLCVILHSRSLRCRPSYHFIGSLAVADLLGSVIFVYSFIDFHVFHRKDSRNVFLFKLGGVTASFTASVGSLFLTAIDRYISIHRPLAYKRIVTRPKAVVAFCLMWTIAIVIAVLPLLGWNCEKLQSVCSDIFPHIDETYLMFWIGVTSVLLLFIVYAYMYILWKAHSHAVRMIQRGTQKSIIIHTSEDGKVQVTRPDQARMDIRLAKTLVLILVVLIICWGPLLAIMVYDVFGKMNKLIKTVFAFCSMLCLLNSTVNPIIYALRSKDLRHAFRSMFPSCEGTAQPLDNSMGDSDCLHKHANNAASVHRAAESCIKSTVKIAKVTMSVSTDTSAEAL

| SMILES | EC50 (human CB1 receptors) [nM] | EC50 (human CB2 receptors) [nM] |
| --- | --- | --- |
| CN1C(=O)CN(C(=O)c2ccc(N3CC(F)(F)C3)c(OCC3CC3)n2)[C@@H]1C(C)(C)C [Example 56, (R)-2-tert-Butyl-1-[6-cyclopropylmethoxy-5-(3,3-difluoro-azetidin-1-yl)-pyridine-2-carbonyl]-3-methyl-imidazolidin-4-one] | > 10000 | 36.9 |
| O=C(c1ccc(N2CC(F)(F)C2)c(OCC2CC2)n1)N1CCCC12CC2 [Example 57, (4-Aza-spiro[2.4]hept-4-yl)-[6-cyclopropylmethoxy-5-(3,3-difluoro-azetidin-1-yl)-pyridin-2-yl]-methanone] | > 10000 | 1.8 |
| CC1(C)CC(C2CCN(C(=O)c3ccc(N4CC(F)(F)C4)c(OCC4CC4)n3)CC2)C(=O)N1 (stereo not shown) [Example 58, 3-{1-[6-Cyclopropylmethoxy-5-(3,3-difluoro-azetidin-1-yl)-pyridine-2-carbonyl]-piperidin-4-yl}-5,5-dimethyl-pyrrolidin-2-one] | > 10000 | 594 |
| O=C(c1ccc(N2CC(F)(F)C2)c(OCC2CC2)n1)N1C[C@@H]2CC[C@H]1C2 [Example 59, (1S,4R)-2-Aza-bicyclo[2.2.1]hept-2-yl-[6-cyclopropylmethoxy-5-(3,3-difluoro-azetidin-1-yl)-pyridin-2-yl]-methanone] | > 10000 | 14.2 |
| NC(=O)[C@@H]1CC(F)(F)CN1C(=O)c1ccc(N2CC(F)(F)C2)c(OCC2CC2)n1 [Example 60, (S)-1-[6-Cyclopropylmethoxy-5-(3,3-difluoro-azetidin-1-yl)-pyridine-2-carbonyl]-4,4-difluoro-pyrrolidine-2-carboxylic acid amide] | > 10000 | 3.08 |
| CC1(O)CCN(C(=O)c2ccc(N3CC(F)(F)C3)c(OCC3CC3)n2)CC1 [Example 61, [6-Cyclopropylmethoxy-5-(3,3-difluoro-azetidin-1-yl)-pyridin-2-yl]-(4-hydroxy-4-methyl-piperidin-1-yl)-methanone] | > 10000 | 391 |
| O=C(c1ccc(N2CC(F)(F)C2)c(OCC2CC2)n1)N1C[C@@H]2C[C@H]1CS2 [Example 62, [6-Cyclopropylmethoxy-5-(3,3-difluoro-azetidin-1-yl)-pyridin-2-yl]-(1S,4S)-2-thia-5-aza-bicyclo[2.2.1]hept-5-yl-methanone] | > 10000 | 9.1 |
| O=C(c1ccc(N2CC(F)(F)C2)c(OCC2CC2)n1)N1C[C@@H]2C[C@H]1CN2Cc1ccccc1 [Example 63, ((1S,4S)-5-Benzyl-2,5-diaza-bicyclo[2.2.1]hept-2-yl)-[6-cyclopropylmethoxy-5-(3,3-difluoro-azetidin-1-yl)-pyridin-2-yl]-methanone] | > 10000 | 198 |
| CC1C(c2ccccc2)CCCN1C(=O)c1ccc(N2CC(F)(F)C2)c(OCC2CC2)n1 (stereo not shown) [Example 64, [6-Cyclopropylmethoxy-5-(3,3-difluoro-azetidin-1-yl)-pyridin-2-yl]-(2-methyl-3-phenyl-piperidin-1-yl)-methanone] | > 10000 | 40.5 |
| O=C(c1ccc(N2CC(F)(F)C2)c(OCC2CC2)n1)N1C[C@@H]2C[C@H]1CO2 [Example 65, [6-Cyclopropylmethoxy-5-(3,3-difluoro-azetidin-1-yl)-pyridin-2-yl]-(1S,4S)-2-oxa-5-aza-bicyclo[2.2.1]hept-5-yl-methanone] | > 10000 | 100 |
| CC1(C)CC(O)CCN1C(=O)c1ccc(N2CC(F)(F)C2)c(OCC2CC2)n1 (stereo not shown) [Example 66, [6-Cyclopropylmethoxy-5-(3,3-difluoro-azetidin-1-yl)-pyridin-2-yl]-(4-hydroxy-2,2-dimethyl-piperidin-1-yl)-methanone] | > 10000 | 5.6 |
| CCOC(=O)C1CCCN(C(=O)c2ccc(N3CC(F)(F)C3)c(OCC3CC3)n2)C1c1ccccc1 (stereo not shown) [Example 67, 1-[6-Cyclopropylmethoxy-5-(3,3-difluoro-azetidin-1-yl)-pyridine-2-carbonyl]-2-phenyl-piperidine-3-carboxylic acid ethyl ester] | > 10000 | 368 |
| NC(=O)[C@@H]1CC(F)(F)CN1C(=O)c1ccc(C2CC2)c(OCC2CC2)n1 [Example 68, (S)-1-(5-Cyclopropyl-6-cyclopropylmethoxy-pyridine-2-carbonyl)-4,4-difluoro-pyrrolidine-2-carboxylic acid amide] | > 10000 | 2.7 |
| NC(=O)[C@@H]1C[C@H](F)CN1C(=O)c1ccc(C2CC2)c(OCC2CC2)n1 [Example 69, (2S,4S)-1-(5-Cyclopropyl-6-cyclopropylmethoxy-pyridine-2-carbonyl)-4-fluoro-pyrrolidine-2-carboxylic acid amide] | > 10000 | 1040 |
| O=C(c1ccc(N2CC(F)(F)C2)c(OCC2CC2)n1)N1CC2CCOC2C1 (stereo not shown) [Example 70, [6-Cyclopropylmethoxy-5-(3,3-difluoro-azetidin-1-yl)-pyridin-2-yl]-(hexahydrofuro[2,3-c]pyrrol-5-yl)-methanone] | > 10000 | 104 |
| O=C(c1ccc(N2CC(F)(F)C2)c(OCC2CC2)n1)N1CC2(C1)CS(=O)(=O)C2 [Example 71, [6-Cyclopropylmethoxy-5-(3,3-difluoro-azetidin-1-yl)-pyridin-2-yl]-(2,2-dioxo-2λ6-thia-6-aza-spiro[3.3]hept-6-yl)-methanone] | > 10000 | 444 |
| CC(C)(C)N(CCC(N)=O)C(=O)c1ccc(N2CC(F)(F)C2)c(OCC2CC2)n1 [Example 72, 6-Cyclopropylmethoxy-5-(3,3-difluoro-azetidin-1-yl)-pyridine-2-carboxylic acid tert-butyl-(2-carbamoyl-ethyl)-amide] | > 10000 | 664 |
| NC(=O)[C@@H]1CCCN1C(=O)c1ccc(C2CC2)c(OCC2CC2)n1 [Example 73, (S)-1-(5-Cyclopropyl-6-cyclopropylmethoxy-pyridine-2-carbonyl)-pyrrolidine-2-carboxylic acid amide] | > 10000 | 636 |
| CC(C)(C)OC(=O)N1CCC2(CCCN2C(=O)c2ccc(N3CC(F)(F)C3)c(OCC3CC3)n2)CC1 [Example 74, 1-[6-Cyclopropylmethoxy-5-(3,3-difluoro-azetidin-1-yl)-pyridine-2-carbonyl]-1,8-diaza-spiro[4.5]decane-8-carboxylic acid tert-butyl ester] | > 10000 | 11.5 |
| NC(=O)[C@@H]1CC(F)(F)CN1C(=O)c1ccc(C2CC2)c(OCC2CCCO2)n1 (stereo partly drawn) [Example 75, (S)-1-{5-Cyclopropyl-6-[(R,S)-1-(tetrahydro-furan-2-yl)methoxy]-pyridine-2-arbonyl}-4,4-difluoro-pyrrolidine-2-carboxylic acid amide] | > 10000 | 16.2 |
| NC(=O)[C@@H]1CC(F)(F)CN1C(=O)c1ccc(C2CC2)c(Cc2ccc(F)cc2)n1 [Example 76, (S)-1-[5-Cyclopropyl-6-(4-fluoro-benzyl)-pyridine-2-carbonyl]-4,4-difluoro-pyrrolidine-2-carboxylic acid amide] | 167 | 0.2 |
| CC1(C)C[C@H](C(N)=O)N(C(=O)c2ccc(N3CC(F)(F)C3)c(OCC3CC3)n2)C1 [Example 77, (+)-1-[6-Cyclopropylmethoxy-5-(3,3-difluoro-azetidin-1-yl)-pyridine-2-carbonyl]-4,4-dimethyl-pyrrolidine-2-carboxylic acid amide] | > 10000 | 194 |
| CC1(C)C[C@@H](C(N)=O)N(C(=O)c2ccc(N3CC(F)(F)C3)c(OCC3CC3)n2)C1 [Example 78, (−)-1-[6-Cyclopropylmethoxy-5-(3,3-difluoro-azetidin-1-yl)-pyridine-2-carbonyl]-4,4-dimethyl-pyrrolidine-2-carboxylic acid amide] | > 10000 | 1.2 |
| NC(=O)[C@@H]1C[C@H](O)CN1C(=O)c1ccc(N2CC(F)(F)C2)c(OCC2CC2)n1 [Example 79, (2S,4S)-1-[6-Cyclopropylmethoxy-5-(3,3-difluoro-azetidin-1-yl)-pyridine-2-carbonyl]-4-hydroxy-pyrrolidine-2-carboxylic acid amide] | > 10000 | 519 |
| NC(=O)[C@@H]1C[C@H](F)CN1C(=O)c1ccc(N2CC(F)(F)C2)c(OCC2CC2)n1 [Example 80, (2S,4S)-1-[6-Cyclopropylmethoxy-5-(3,3-difluoro-azetidin-1-yl)-pyridine-2-carbonyl]-4-fluoro-pyrrolidine-2-carboxylic acid amide] | > 10000 | 342 |
| Cc1nnc(CN(C(=O)c2ccc(N3CC(F)(F)C3)c(OCC3CC3)n2)C2CC2)o1 [Example 81, 6-Cyclopropylmethoxy-5-(3,3-difluoro-azetidin-1-yl)-pyridine-2-carboxylic acid cyclopropyl-(5-methyl-[1,3,4]oxadiazol-2-ylmethyl)-amide] | > 10000 | 652 |

— patent US9303012B2, “Pyridine-2-amides useful as CB2 agonists” (Hoffmann-La Roche Inc., priority 2012, dated 2016)
